Our source for the IC50 and inhibition values is patent US20240398783A1, “Compounds and Pharmaceutical Compositions Comprising Inhibitors of Amyloid Peptide Interactions with Glycosaminoglycans, Methods of Treatment and Use Thereof” (Gismo Therapeutics, Inc., priority 2021, published 2024).

Assay [1] deals with Tau binding to heparin (HS-GAG) (Homo sapiens, UniProt P10636). Briefly: Inhibition of Tau binding to immobilized heparin-BSA (ELISA). As to conditions: for IC50: Tau, heparin-BSA; for inhibition at 30 µM: read-out: Tau/Heparin Activity (% inhibition class). More on the design: species or system porcine. The procedure: (§1) Porcine intestinal mucosa heparin conjugated to Bovine Serum Albumin (Heparin-BSA) was prepared as described (Najjam, S. et al. 1997, Cytokine 12, 1013-1022). Heparin is a sulfated HS-GAG and is commonly used as a HS-GAG in biochemical and binding assays (Lindahl, U. and Kjellen, L. (2013) ibid). Heparin-BSA at 0.01 mg/ml in Phosphate Buffered Saline (PBS; pH 7.4) was added to a 96 well polystyrene ELISA plate (NUNC Cat. No. 449824; 100 μl per well) and incubated Over Night (ON) at 4 degrees Celsius. For negative controls, ELISA plates were coated with BSA instead of Heparin-BSA, using the same procedure. Following the incubation, the plate was washed consecutively, by immersion, with de-ionized water and PBS (pH 7.4). The ELISA plate was then blocked with nonfat milk (2%, 200 μl per well) for 2 hours at Room Temperature (RT) with gentle shaking. Following blocking, the plate was washed with de-ionized water then PBS (pH 7.4). GBAPs were dissolved and diluted in PBS (pH 6.5, supplemented with 0.1% BSA) at desired concentrations, added to the ELISA plates containing immobilized Heparin-BSA (100 μl per well) and incubated for 2 hours at RT with gentle shaking. Following incubation, the plate was washed with de-ionized water and three times with PBS (pH 6.5) plus Tween. Bound GBAP was detected by a monoclonal antibody specific for that GBAP, followed by incubation with secondary antibody conjugated to horseradish peroxidase (HRP). Antibody was diluted in PBS (pH 6.5 supplemented with 1% BSA). Following each incubation with antibody, the plate was washed with de-ionized water and three times with PBS (pH 6.5) wash buffer containing 0.1% Tween. The peroxidase substrate chromogen, TMB (Dako Cat. No. S1599) was added (100 μl per well) to the ELISA plate and incubated at room temperature. After 5 minutes ELISA Stop Solution (hydrochloric acid 1N, sulfuric acid 3N) was added (100 μl per well) to stop the peroxidase catalyzed colorimetric reaction. The Optical Density of the samples was measured at 450 nm using an ELISA plate reader (BioTek Synergy H1). Following color development, the % inhibition compared to control (BSA-coated plates) was determined. IC-50s were calculated using GraphPad Prism software.
The assay was performed as described in Example 43, with the following modifications. Following to coating the plates with Heparin-BSA, plates were washed as described. The compounds were dissolved in DMSO at 10 mM final concentration and further diluted prior to assay. DMSO concentration in the screening well was up to 2%. Individual compounds were co-incubated with Tau on plates containing immobilized heparin. Tau purchased from rPeptide (Cat. No. T1001) was dissolved in DMSO (Sigma Cat. No. D2650), quickly frozen and kept in aliquots at −80 degrees Celsius. Tau dissolved in PBS (pH 6.5, supplemented with BSA, 0.1%) was added to the ELISA plate (100 μl per well) and incubated for 2 hours at RT with gentle shaking. Following the incubation, the plate was washed with de-ionized water and three times with PBS (pH 6.5) plus Tween. Bound Tau was detected by anti-Tau Monoclonal Antibody D-8 (Santa Cruz Cat. No. sc-166060), followed by secondary anti-IgG antibody conjugated to HRP (R&D System, Cat. No. HAF007). Following to color development with TMB, as described in Example 43, the Optical Density of the samples was measured at 450 nm using an ELISA plate reader. Following color development, the % inhibition compared to control (no compound, DMSO control) for every compound was determined.
An example of inhibition curve is shown in FIG. 3 for Inhibitor Compounds 3 and 6. As described in Example 43, Heparin in the form of Heparin-BSA conjugate is used as a source of HS-GAG. For each compound IC-50 value in Tau—heparin-BSA binding assay is shown in […]. In some cases IC-50 was not measured and […] at 30 μM compound concentration is shown instead. […]

In assay [2] the target is TDP-43 binding to heparin (HS-GAG) (Homo sapiens, UniProt Q13148). Description: Inhibition of TDP-43 binding to immobilized heparin-BSA (ELISA). More on the design: species or system porcine. The settings on record: for IC50: TDP-43, heparin-BSA; for inhibition at 30 µM: read-out: TDP43/Heparin Activity (% inhibition class). On the procedure:
as §1
The assay was performed as described in Example 43, with the following modifications.
Following to coating the plates with Heparin-BSA, plates were washed as described. The compounds were dissolved in DMSO at 10 mM final concentration and further diluted prior to assay. DMSO concentration in the screening well was up to 2%. Individual compounds were co-incubated with TDP-43 on plates containing immobilized heparin. TDP43 from R&D System (Cat. No. AP-190) was quickly frozen and kept in aliquots at −80 degrees Celsius. TDP-43 dissolved in PBS (pH 6.5, supplemented with BSA, 0.1%) was added to the ELISA plate (100 μl per well) and incubated for 2 hours at RT with gentle shaking. Following the incubation, the plate was washed with de-ionized water and three times with PBS (pH 6.5) plus Tween. Bound TDP-43 was detected by Anti-TDP43 Monoclonal Antibody (R&D System Cat. No. MAB7778), followed by secondary anti-IgG antibody conjugated to HRP (R&D System, Cat. No. HAF007). Following to color development with TMB, as described in Example 43, the Optical Density of the samples was measured at 450 nm using an ELISA plate reader. Following color development, the % inhibition compared to control (no compound, DMSO control) for every compound was determined.
As described in Example 43, Heparin in the form of Heparin-BSA conjugate is used as a source of HS-GAG. For each compound IC-50 value in TDP-43—heparin-BSA binding assay is shown in μM (micromolar). In some cases IC-50 was not measured and % inhibition at 30 μM compound concentration is shown instead. […] All assays were done on 96-well plates in duplicates and experiments were repeated at least twice. […]
Background: ELISA stands for enzyme-linked immunosorbent assay.

Where [3] appears, read: read-out: Tau/Heparin Activity (IC-50).
[4] abbreviates: read-out: TDP43/Heparin Activity (IC-50).

Where a name gives a salt, the structure may show the parent alone. Read-outs that look alike come from different tables or passages of the source. Bounds are passed on as bounds.

Chain of TDP-43 binding to heparin (HS-GAG) (Q13148 whole entry): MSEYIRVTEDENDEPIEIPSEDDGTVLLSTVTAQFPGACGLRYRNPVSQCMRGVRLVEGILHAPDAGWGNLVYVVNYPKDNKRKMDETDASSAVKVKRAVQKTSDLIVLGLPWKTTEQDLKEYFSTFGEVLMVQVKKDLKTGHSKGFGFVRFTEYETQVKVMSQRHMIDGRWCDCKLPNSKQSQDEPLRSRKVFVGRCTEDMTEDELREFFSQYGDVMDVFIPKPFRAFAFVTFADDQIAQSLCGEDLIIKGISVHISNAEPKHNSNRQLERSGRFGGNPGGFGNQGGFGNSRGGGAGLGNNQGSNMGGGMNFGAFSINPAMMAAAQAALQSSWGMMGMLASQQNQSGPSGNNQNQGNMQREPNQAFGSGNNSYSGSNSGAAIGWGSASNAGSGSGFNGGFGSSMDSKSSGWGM
Chain of Tau binding to heparin (HS-GAG) (P10636 with tags, fused parts or gaps): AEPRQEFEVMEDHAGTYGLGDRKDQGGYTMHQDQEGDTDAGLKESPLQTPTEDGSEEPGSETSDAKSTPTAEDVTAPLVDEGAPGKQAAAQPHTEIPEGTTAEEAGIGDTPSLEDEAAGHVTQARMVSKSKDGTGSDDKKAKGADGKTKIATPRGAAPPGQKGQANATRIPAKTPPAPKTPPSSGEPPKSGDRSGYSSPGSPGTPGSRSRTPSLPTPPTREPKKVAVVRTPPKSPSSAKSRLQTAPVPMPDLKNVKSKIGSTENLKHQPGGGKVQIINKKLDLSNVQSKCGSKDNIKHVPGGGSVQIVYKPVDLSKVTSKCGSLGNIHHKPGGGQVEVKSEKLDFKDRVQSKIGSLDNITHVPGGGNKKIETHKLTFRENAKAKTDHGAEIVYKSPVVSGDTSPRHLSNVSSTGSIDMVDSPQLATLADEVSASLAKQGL

Regarding `C/C(=N\Nc1ncnc2ccccc12)c1ccc(-n2cc(C)nc2C)nc1` [Compound 19, (E)-4-(2-(1-(6-(2,4-dimethyl-1H-imidazol-1-yl)pyridin-3-yl)ethylidene)hydrazineyl)quinazoline], the results for the IC50 in assay [1] (Tau/Heparin Activity (IC-50)) and in assay [2] (TDP43/Heparin Activity (IC-50)) were 46.6 µM and 36.8 µM, respectively.
Turning to `CN1CCN(c2cc(Nc3ccnc4cc(Cl)ccc34)ccn2)CC1` [Compound 20, 7-chloro-N-(2-(4-methylpiperazin-1-yl)pyridin-4-yl)quinolin-4-amine], the inhibition at 30 µM in assay [1] and in assay [2] was less than 30% each time.
As to `C/C(=N\Nc1ncnc2cc(F)ccc12)c1ccc(-n2cnc(C)c2C)nc1` [Compound 21, (E)-4-(2-(1-(6-(4,5-dimethyl-1H-imidazol-1-yl)pyridin-3-yl)ethylidene)hydrazineyl)-7-fluoroquinazoline], the IC50 in assay [1] (setting [3]) was 80.9 µM; in assay [2] (setting [4]), 4.6 µM.
On to `CC(=NNc1ccnc2cc(Cl)ccc12)c1ccc(-n2cnc(C)c2C)nc1` [Compound 22, 7-chloro-4-(2-(1-(6-(4,5-dimethyl-1H-imidazol-1-yl)pyridin-3-yl)ethylidene)hydrazineyl)quinoline], for which the IC50 in assay [1] (Tau/Heparin Activity (IC-50)) amounted to 28.2 µM; in assay [2] (TDP43/Heparin Activity (IC-50)), 9.02 µM.
Consider `CC(=NNc1ccnc2cc(Cl)ccc12)c1ccc(-n2cc[n+](C)c2)nc1` [Compound 23, 1-(5-(1-(2-(7-chloroquinolin-4-yl)hydrazineylidene)ethyl)pyridin-2-yl)-3-methyl-1H-imidazol-3-ium iodide], for which, in assay [1] (Tau/Heparin Activity (IC-50)), the IC50 came out at 25.7 µM. The inhibition at 30 µM in assay [2] is less than 30%.
In the case of `C/C(=N\Nc1nncc2cc(Cl)ccc12)c1ccc(-n2cc(C)nc2C)nc1` [Compound 24, (E)-6-chloro-1-(2-(1-(6-(2,4-dimethyl-1H-imidazol-1-yl)pyridin-3-yl)ethylidene)hydrazineyl)phthalazine], the IC50 in assay [1] (setting [3]) worked out at 37.9 µM; in assay [2] (setting [4]), 0.89 µM.
For `Cc1ncn(-c2ccc(Nc3ncnc4cc(Cl)ccc34)cn2)c1C` [Compound 25, 7-chloro-N-(6-(4,5-dimethyl-1H-imidazol-1-yl)pyridin-3-yl)quinazolin-4-amine], the inhibition at 30 µM in assay [1] is less than 30%. Further, the IC50 in assay [2] (TDP43/Heparin Activity (IC-50)) is 2.45 µM.
Take `C/C(=N\Nc1ncnc2cc(F)ccc12)c1ccc(-n2cc[n+](C)c2)nc1` [Compound 26, (E)-1-(5-(1-(2-(7-fluoroquinazolin-4-yl)hydrazineylidene)ethyl)pyridin-2-yl)-3-methyl-1H-imidazol-3-ium phosphoric acid salt]: the IC50 in assay [1] (Tau/Heparin Activity (IC-50)) came out at 17.7 µM; in assay [2] (TDP43/Heparin Activity (IC-50)), 32.8 µM.
`C/C(=N\Nc1ncnc2cc(Cl)ccc12)c1ccc(-n2cc(C)nc2C)nc1` [Compound 27, (E)-7-chloro-4-(2-(1-(6-(2,4-dimethyl-1H-imidazol-1-yl)pyridin-3-yl)ethylidene)hydrazineyl)quinazoline hydrochloride]: the results for the IC50 in assay [1] (setting [3]) and in assay [2] (setting [4]) were 2.86 µM and 2.18 µM, respectively.
For the molecule `CC(=NNc1ncnc2cc(Cl)ccc12)c1ccnc(-n2cnc(C)c2C)c1` [Compound 28, 7-chloro-4-(2-(1-(2-(4,5-dimethyl-1H-imidazol-1-yl)pyridin-4-yl)ethylidene)hydrazineyl)quinazoline], the IC50 is 61.8 µM in assay [1] (setting [3]) and 5.73 µM in assay [2] (setting [4]).
With `C/C(=N\Nc1ncnc2cc(Cl)ccc12)c1cccc(CN(C)C)c1` [Compound 29, 1-(3-(1-(2-(7-chloroquinazolin-4-yl)hydrazineylidene)ethyl)phenyl)—N,N-dimethylmethanamine], the IC50 in assay [1] (Tau/Heparin Activity (IC-50)) was 32.4 µM. Besides, the inhibition at 30 µM in assay [2] was less than 30%.
In the case of `C/C(=N\Nc1ncnc2cc(Cl)ccc12)c1cccc(N2CCN(C)CC2)c1` [Compound 30, 7-chloro-4-(2-(1-(3-(4-methylpiperazin-1-yl)phenyl)ethylidene)hydrazineyl)quinazoline], the values for the IC50 in assay [1] (Tau/Heparin Activity (IC-50)) and in assay [2] (TDP43/Heparin Activity (IC-50)) were 32.2 µM and 12.2 µM, respectively.
Turning to `COc1cc(Nc2nncc3cc(Cl)ccc23)cnc1-n1cnc(C)c1C` [Compound 31, 6-chloro-N-(6-(4,5-dimethyl-1H-imidazol-1-yl)-5-methoxypyridin-3-yl)phthalazin-1-amine phosphoric acid salt], in assay [1] (Tau/Heparin Activity (IC-50)), the IC50 stood at 33.7 µM. For the same molecule, the inhibition at 30 µM in assay [2] was less than 30%.
In the case of `C/C(=N\Nc1ncnc2cc(Cl)ccc12)c1ccc(-n2cncn2)nc1` [Compound 32, (E)-4-(2-(1-(6-(1H-1,2,4-triazol-1-yl)pyridin-3-yl)ethylidene)hydrazineyl)-7-chloroquinazoline], the inhibition at 30 µM in assay [1] and in assay [2] was less than 30% in each case.
For `COc1cc(Nc2cncc3cc(Cl)ccc23)cnc1-n1cnc(C)c1C` [Compound 33, 7-chloro-N-(6-(4,5-dimethyl-1H-imidazol-1-yl)-5-methoxypyridin-3-yl)isoquinolin-4-amine phosphoric acid salt], the IC50 in assay [1] (Tau/Heparin Activity (IC-50)) turned out to be 24.7 µM. Besides, the inhibition at 30 µM in assay [2] is less than 30%.
Take `Clc1ccc2c(Nc3ccc(-n4cncn4)nc3)ncnc2c1` [Compound 34, N-(6-(1H-1,2,4-triazol-1-yl)pyridin-3-yl)-7-chloroquinazolin-4-amine phosphoric acid salt]: the inhibition at 30 µM in assay [1] was less than 30%. Further, the IC50 in assay [2] (TDP43/Heparin Activity (IC-50)) is 5.23 µM.
Consider `Fc1cc(/C=N/Nc2ccnc3cc(Cl)ccc23)ccc1-n1ccnc1` [Compound 35, (E)-7-chloro-4-(2-(3-fluoro-4-(1H-imidazol-1-yl)benzylidene)hydrazineyl)quinoline hydrochloride], for which the IC50 stood at 41.3 µM in assay [1] (Tau/Heparin Activity (IC-50)) and 15.6 µM in assay [2] (TDP43/Heparin Activity (IC-50)).
Taken in the same sequence, the figures for `CC(=NNc1ccnc2cc(Cl)ccc12)c1ccc(-n2ccnc2)cc1` [Compound 36, 4-(2-(1-(4-(1H-imidazol-1-yl)phenyl)ethylidene)hydrazineyl)-7-chloroquinoline phosphate] were 28.5 µM and 47.9 µM.
